The results in this text go back to patent publication US9499553B2 (CHUGAI SEIYAKU KABUSHIKI KAISHA, priority 2013, dated 2016).

pIC50: −log10 of the molar value. Counter-ions that a name gives are not always drawn.

One assay has as its target T1, human NaPi-IIb (Homo sapiens, UniProt O95436).
T1 construct: expressed in transfected cells
T1 sequence (O95436 1-690): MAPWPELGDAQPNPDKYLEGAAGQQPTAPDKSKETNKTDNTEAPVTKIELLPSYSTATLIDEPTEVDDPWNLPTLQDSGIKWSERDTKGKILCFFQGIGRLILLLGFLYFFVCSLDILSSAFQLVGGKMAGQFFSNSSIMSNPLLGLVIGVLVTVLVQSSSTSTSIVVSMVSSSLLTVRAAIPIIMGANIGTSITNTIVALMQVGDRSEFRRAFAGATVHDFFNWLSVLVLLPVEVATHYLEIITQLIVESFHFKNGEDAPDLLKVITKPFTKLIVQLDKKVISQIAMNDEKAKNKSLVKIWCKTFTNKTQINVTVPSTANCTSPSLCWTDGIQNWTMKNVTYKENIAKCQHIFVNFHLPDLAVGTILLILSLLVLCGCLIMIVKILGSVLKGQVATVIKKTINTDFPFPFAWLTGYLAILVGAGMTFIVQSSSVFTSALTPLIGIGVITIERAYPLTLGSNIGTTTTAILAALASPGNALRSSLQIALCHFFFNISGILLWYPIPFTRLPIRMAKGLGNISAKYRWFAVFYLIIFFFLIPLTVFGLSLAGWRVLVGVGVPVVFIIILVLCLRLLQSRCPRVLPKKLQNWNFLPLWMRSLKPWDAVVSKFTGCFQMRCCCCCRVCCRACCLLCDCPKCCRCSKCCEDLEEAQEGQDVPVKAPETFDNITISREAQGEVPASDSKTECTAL
Description: Inhibitory effect on 33PO4 uptake into human NaPi-IIb-expressing CHO cells. Type of assay: cell-based. Conditions: read-out: IC50. The essentials: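 Uptake of ³³PO4 was measured by scintillation counting after ice-cold buffer A washes. Cells were CHO stably expressing human NaPi-IIb, seeded overnight, and exposed to ³³PO4 in buffer A at room temperature.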
Consider `Cc1ccccc1CN1C(=O)C(C(=O)Nc2ccc(C(F)(F)F)cc2-c2cc(C(F)(F)F)ncn2)=C(O)[C@@]2(C)CCCN12` [Example 185], for which the pIC50 is 5.31. Still for that read-out and setting: the figure for `CN1N(Cc2cccc(F)c2F)C(=O)C(C(=O)Nc2ccc(C(F)(F)F)cc2-c2cc(C#N)ncn2)=C(O)C1(C)C` [Example 303] is 4.80; for `CSc1ncc(-c2cc(C(F)(F)F)ccc2NC(=O)C2=C(O)[C@@]3(C)CCCN3N(Cc3ccc(C#CCCCCC(=O)O)c(F)c3F)C2=O)cn1` [Example 118, 7-[4-[[(4aR)-4-Hydroxy-4a-methyl-3-[[2-(2-methylsulfanylpyrimidin-5-yl)-4-(trifluoromethyl)phenyl]carbamoyl]-2-oxo-6,7-dihydro-5H-pyrrolo[1,2-b]pyridazin-1-yl]methyl]-2,3-difluorophenyl]hept-6-ynoate] it is 5.04. On the same count and under the same terms, then `C[C@]12CCCN1N(Cc1c(F)cc(OCCCCCCOC[C@H](O)CO)cc1F)C(=O)C(C(=O)Nc1ccc(C(F)(F)F)cc1-c1ccc(C(F)(F)F)nc1)=C2O` [Example 155], with 5.64; and `CC(C)[C@H]1C(O)=C(C(=O)Nc2cc(F)c(Br)c(F)c2)C(=O)N(Cc2cccc(F)c2F)N1C` [Example 254], with 5.01.

Consider `C[C@]12CCCN1N(Cc1c(F)cc(C#CCCCCCOC[C@H](O)[C@@H](O)CO)cc1F)C(=O)C(C(=O)Nc1ccc(C(F)(F)F)cc1-c1ccc(C(F)(F)F)nc1)=C2O` [Example 124, (4aR)-1-[[2,6-Difluoro-4-[7-[(2S,3S)-2,3,4-trihydroxybutoxy]hept-1-ynil]phenyl]methyl]-4-hydroxy-4a-methyl-2-oxo-N-[4-(trifluoromethyl)-2-[6-(trifluoromethyl)pyridin-3-yl]phenyl]-6,7-dihydro-5H-pyrrolo[1,2-b]pyridazine-3-carboxamide], for which the pIC50 is 5.60. Same read-out and setting: the figure for `COc1cccc(-c2cc(C(F)(F)F)ccc2NC(=O)C2=C(O)[C@@]3(C)CCCN3N(Cc3ccc(C#CCOCCOCCOCCO)c(F)c3F)C2=O)c1OC` [Example 136] is 4.75; for `Cc1c(Cl)ncnc1-c1cc(C(F)(F)F)ccc1NC(=O)C1=C(O)[C@@]2(C)CCCN2N(Cc2cccc(F)c2F)C1=O` [Example 69] it is 5.05; for `COC(=O)c1cc(F)c(CN2C(=O)C(C(=O)Nc3ccc(C(F)(F)F)cc3-c3ccc(C(F)(F)F)nc3)=C(O)[C@@]3(C)CCCN23)c(F)c1` [Example 165, Methyl 4-[[(4aR)-4-Hydroxy-4a-methyl-2-oxo-3-[[4-(trifluoromethyl)-2-[6-(trifluoromethyl)pyridin-3-yl]phenyl]carbamoyl]-6,7-dihydro-5H-pyrrolo[1,2-b]pyridazin-1-yl]methyl]-3,5-difluorobenzoate] it is 5.74. For `COc1cc(-c2cc(C(F)(F)F)ccc2NC(=O)C2=C(O)C(C)(C)N(C)N(Cc3cccc(F)c3F)C2=O)cnc1C#N` [Example 302], the pIC50 was 5.11.

For `C[C@]12CCCN1N(Cc1cccc(F)c1F)C(=O)C(C(=O)Nc1ccc(Cl)cc1F)=C2O` [Example 76], the pIC50 is 5.18. For the compound `CC(C)[C@H]1C(O)=C(C(=O)Nc2ccc(C(F)(F)F)cc2-c2ccc(C(F)(F)F)nc2)C(=O)N(Cc2ccc(OCCN3CCOCC3)c(F)c2F)N1C` [Example 280], the pIC50 was 4.92. As for `Cc1c(C#N)ncnc1-c1cc(C(F)(F)F)ccc1NC(=O)C1=C(O)C(C)(C)N(C)N(Cc2cccc(F)c2F)C1=O` [Example 311], the pIC50 was 5.09. `CN1N(Cc2ccc(OCCN3CCOCC3)c(F)c2F)C(=O)C(C(=O)Nc2ccc(Cl)cc2-c2cc(C(F)(F)F)ncn2)=C(O)C12CCCCC2` [Example 297]: the pIC50 is 4.74. For the compound `C[C@]12CCCN1N(Cc1cccc(C#N)c1)C(=O)C(C(=O)Nc1cc(F)c(Br)c(F)c1)=C2O` [Example 220], the pIC50 was 4.91. Same read-out and setting: then `CCC1(CC)C(O)=C(C(=O)Nc2ccc(C(F)(F)F)cc2-c2cc(C(F)(F)F)ncn2)C(=O)N(Cc2ccc(OCCN3CCOCC3)c(F)c2F)N1C` [Example 291], with 4.83; and `CN1N(Cc2ccc(OCCN3CCOCC3)c(F)c2F)C(=O)C(C(=O)Nc2ccc(C(F)(F)F)cc2-c2cc(C(F)(F)F)ncn2)=C(O)C12CCCCC2` [Example 295], with 4.77. Still for that read-out and setting: the figure for `COc1cccc(-c2cc(C(F)(F)F)ccc2NC(=O)C2=C(O)[C@@]3(C)CCCN3N(Cc3ccc(OCc4ccncc4)c(F)c3F)C2=O)c1OC` [Example 151, (4aR)-1-[[2,3-Difluoro-4-(pyridin-4-ylmethoxy)phenyl]methyl]-N-[2-(2,3-dimethoxyphenyl)-4-(trifluoromethyl)phenyl]-4-hydroxy-4a-methyl-2-oxo-6,7-dihydro-5H-pyrrolo[1,2-b]pyridazine-3-carboxamide] is 5.08; for `CN1N(Cc2cccc(F)c2F)C(=O)C(C(=O)Nc2cc(F)c(Br)c(F)c2)=C(O)C12CCC2` [Example 257] it is 5.22. `CN1N(Cc2ccc(OCCN3CCOCC3)c(F)c2F)C(=O)C(C(=O)Nc2ccc(C(F)(F)F)cc2-c2cc(C(F)(F)F)ncn2)=C(O)C1(C)C` [Example 313, 2-[[2,3-Difluoro-4-(2-morpholin-4-ylethoxy)phenyl]methyl]-5-hydroxy-1,6,6-trimethyl-3-oxo-N-[4-(trifluoromethyl)-2-[6-(trifluoromethyl)pyrimidin-4-yl]phenyl]pyridazine-4-carboxamide]: the pIC50 is 4.74. Consider `C[C@]12CCCN1N(Cc1c(Cl)cc(OCCN3CCOCC3)cc1Cl)C(=O)C(C(=O)Nc1cnc(C(F)(F)F)nc1-c1ccc(C(F)(F)F)nc1)=C2O` [Example 146, (4aR)-1-[[2,6-Dichloro-4-(2-morpholin-4-ylethoxy)phenyl]methyl]-4-hydroxy-4a-methyl-2-oxo-N-[2-(trifluoromethyl)-4-[6-(trifluoromethyl)pyridin-3-yl]pyrimidin-5-yl]-6,7-dihydro-5H-pyrrolo[1,2-b]pyridazine-3-carboxamide hydrochloride], for which the pIC50 was 4.99. The same measure, in the same setting: then `COc1cccc(-c2cc(C(F)(F)F)ccc2NC(=O)C2=C(O)[C@@]3(C)CCCN3N(Cc3ccc(C#CCOCCCO)c(F)c3F)C2=O)c1OC` [Example 127], with 4.75. Still for that read-out and setting: then `CN1N(Cc2ccc(OCCN3CCOCC3)c(F)c2F)C(=O)C(C(=O)Nc2ccc(Cl)cc2-c2cc(C(F)(F)F)ncn2)=C(O)C12CCCC2` [Example 286], with 4.80; and `Cc1c(-c2cc(C(F)(F)F)ccc2NC(=O)C2=C(O)C3(CCCCC3)N(C)N(Cc3ccc(OCCN4CCOCC4)c(F)c3F)C2=O)ncnc1C(F)(F)F` [Example 296], with 5.00. Same read-out and setting: then `CCC1(CC)C(O)=C(C(=O)Nc2ccc(Cl)cc2-c2cc(C(F)(F)F)ncn2)C(=O)N(Cc2ccc(OCCN3CCOCC3)c(F)c2F)N1C` [Example 292], with 4.74; and `C[C@]12CCCN1N(Cc1cccc(F)c1F)C(=O)C(C(=O)Nc1ccc(C(F)(F)F)cc1-c1ncnc(C#N)c1Cl)=C2O` [Example 23], with 5.16. Take `C[C@]12CCCN1N(Cc1cccc(F)c1)C(=O)C(C(=O)Nc1ccc(C(F)(F)F)cc1-c1ccc(C(F)(F)F)nc1)=C2O` [Example 206]: the pIC50 is 5.70.

Staying with this assay, now noted: read-out: IC50 against 33PO4 uptake into human NaPi-IIb-expressing cells.
Regarding `CN1N(Cc2ccc(OC3COC3)c(F)c2F)C(=O)C(C(=O)Nc2ccc(C(F)(F)F)cc2-c2cc(C(F)(F)F)ncn2)=C(O)C12CCC2` [Example 403, 6-(2,3-Difluoro-4-(oxetan-3-yloxy)benzyl)-9-hydroxy-5-methyl-7-oxo-N-(4-(trifluoromethyl)-2-(6-(trifluoromethyl)pyrimidin-4-yl)phenyl)-5,6-diazaspiro[3.5]non-8-ene-8-carboxamide], the pIC50 is 5.20. Turning to `COCCN1CC[C@@H](Oc2ccc(CN3C(=O)C(C(=O)Nc4ccc(C(F)(F)F)cc4-c4cc(C(F)(F)F)ncn4)=C(O)C4(CCC4)N3C)c(F)c2F)C1` [Example 405, 6-[[2,3-Difluoro-4-[(3R)-1-(2-methoxyethyl)pyrrolidin-3-yl]oxyphenyl]methyl]-9-hydroxy-5-methyl-7-oxo-N-[4-(trifluoromethyl)-2-[6-(trifluoromethyl)pyrimidin-4-yl]phenyl]-5,6-diazaspiro[3.5]non-8-ene-8-carboxamide], the pIC50 was 4.56. Turning to `COC1(C)CN(CCOc2ccc(CN3C(=O)C(C(=O)Nc4ccc(C(F)(F)F)cc4-c4cc(C(F)(F)F)ncn4)=C(O)C4(CCC4)N3C)c(F)c2F)C1` [Example 356], the pIC50 was 4.66. Consider `CN1N(Cc2ccc(OCCNC(CC(=O)O)CC(=O)O)c(F)c2F)C(=O)C(C(=O)Nc2ccc(C(F)(F)F)cc2-c2cc(C(F)(F)F)ncn2)=C(O)C12CCCC2` [Example 382, 3-[2-[2,3-Difluoro-4-[[10-hydroxy-6-methyl-8-oxo-9-[[4-(trifluoromethyl)-2-[6-(trifluoromethyl)pyrimidin-4-yl]phenyl]carbamoyl]-6,7-diazaspiro[4.5]dec-9-en-7-yl]methyl]phenoxy]ethylamino]pentanedioate], for which the pIC50 was 4.68.

`CN(C)C(=O)N1CCN(CCOc2ccc(CN3C(=O)C(C(=O)Nc4ccc(C(F)(F)F)cc4-c4cc(C(F)(F)F)ncn4)=C(O)C4(CCC4)N3C)c(F)c2F)CC1` [Example 364]: the pIC50 is 4.68.
